# Target: T1, recombinant human BACE-1 (rhBACE-1) (Homo sapiens, UniProt P56817)
# T1 construct: expressed as only an extracellular region (amino acid 1-460 residues) of recombinant human β-secretase; His tag (C); purchased R&D systems (Minneapolis, Minn.); host or cells: murine myeloma cell line NS0
# Test: BACE1 inhibitory activity, rhBACE-1 with fluorogenic peptide substrate, reverse phase HPLC
# Type: biochemical
# Details: inhibitor 2 μM; MES buffer pH 5.0, 37° C., 60 minutes; read-out: Inhibitory rate (%) (2 μM)
# Text: Experiment Regarding Measurement of BACE1 Inhibitory Activity Enzyme Used in Measurement As an enzyme having β-secretase activity, recombinant human BACE-1 (rhBACE-1) purchased from R&D systems (Minneapolis, Minn.) was used. rhBACE-1 is expressed as only an extracellular region ([…] residues) of recombinant human β-secretase, with a His tag at its carboxyl terminus in murine myeloma cell line, NS0. Purified secreted rhBACE1 is a mixture of a pro entity (about 75 kDa) and a mature entity (about 72 kDa). […] Assessment of Enzyme Inhibitory Activity […] After incubation at 37° C. for 60 minutes, 20 μL of 20% trichloroacetic acid was added to stop the reaction. And, inhibition % was calculated by measuring a fluorescent intensity of the N-terminal fragment (Ex, 328 nm; […]
# T1 sequence (P56817 46-460 limits assumed): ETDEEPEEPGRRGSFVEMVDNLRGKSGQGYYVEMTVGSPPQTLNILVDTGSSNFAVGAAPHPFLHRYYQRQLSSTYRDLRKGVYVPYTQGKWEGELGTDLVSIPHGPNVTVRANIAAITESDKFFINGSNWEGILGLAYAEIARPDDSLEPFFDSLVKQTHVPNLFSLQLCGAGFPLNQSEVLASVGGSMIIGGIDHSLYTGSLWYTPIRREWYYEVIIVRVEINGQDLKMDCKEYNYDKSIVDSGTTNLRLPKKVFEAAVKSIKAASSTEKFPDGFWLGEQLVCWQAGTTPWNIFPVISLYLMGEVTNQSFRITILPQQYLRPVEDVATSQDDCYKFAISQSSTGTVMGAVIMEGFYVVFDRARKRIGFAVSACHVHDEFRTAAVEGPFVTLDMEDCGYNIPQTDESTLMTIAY
row,inhibition at 2 µM,Compound
1,37.4%,CC(C)(NC(=O)c1cccc(C(=O)NC(Cc2ccccc2)[C@H](O)C(=O)NS(=O)(=O)C(F)(F)F)n1)c1ccccc1 (stereo partly shown) [Example 17]
2,95.6%,CS(=O)(=O)Oc1cc(C(=O)NC(Cc2ccccc2)[C@H](O)C(=O)Nc2cccc(-c3nn[nH]n3)c2)nc(C(=O)N2COCC2c2ccccc2)c1 (stereo partly shown) [Example 16]
3,65.1%,CC(C)(NC(=O)c1cc(=O)cc(C(=O)NC(Cc2ccccc2)[C@H](O)C(=O)Nc2cccc(-c3nn[nH]n3)c2)[nH]1)c1ccccc1 (stereo partly shown) [Example 8]
4,70.1%,C[C@@H](NC(=O)c1cc(=O)cc(C(=O)N[C@@H](Cc2ccccc2)[C@H](O)C(=O)Nc2cccc(-c3nn[nH]n3)c2)o1)c1ccccc1 [Example 1]
5,66.9%,CN(Cc1ccccc1)C(=O)c1cc(=O)cc(C(=O)N[C@@H](Cc2ccccc2)[C@H](O)C(=O)Nc2cccc(-c3nn[nH]n3)c2)o1 [Example 6]
6,82.7%,O=C(NC(Cc1ccccc1)[C@H](O)C(=O)Nc1cccc(-c2nn[nH]n2)c1)c1cc(=O)cc(C(=O)N2COCC2c2ccccc2)[nH]1 (stereo partly shown) [Example 14]
7,28.8%,O=C(N[C@@H](Cc1ccccc1)[C@H](O)C(=O)Nc1cccc(-c2nn[nH]n2)c1)c1cc(=O)cc(C(=O)N(Cc2ccccc2)Cc2ccccc2)o1 [Example 2]
8,65.6%,C[C@@H](NC(=O)c1cccc(C(=O)NC(Cc2ccccc2)[C@H](O)C(=O)Nc2cccc(-c3nn[nH]n3)c2)n1)c1ccccc1 (stereo partly shown) [Example 9]
9,26.8%,C[C@@H](NC(=O)c1cc(=O)cc(C(=O)N[C@@H](Cc2ccccc2)[C@H](O)C(=O)Nc2cccc(-c3nn[nH]n3)c2)o1)c1ccc([N+](=O)[O-])cc1 [Example 3]
10,95.6%,O=C(NC(Cc1ccccc1)[C@H](O)C(=O)Nc1cccc(-c2nn[nH]n2)c1)c1cc(=O)cc(C(=O)N2COCC2c2ccccc2)o1 (stereo partly shown) [Example 13]
11,69.1%,CC(C)(NC(=O)c1cccc(C(=O)NC(Cc2ccccc2)[C@H](O)C(=O)Nc2cccc(-c3nn[nH]n3)c2)n1)c1ccccc1 (stereo partly shown) [Example 10]
12,75.8%,C[C@@H](NC(=O)c1cc(=O)cc(C(=O)N[C@@H](Cc2ccccc2)[C@H](O)C(=O)Nc2cccc(-c3nn[nH]n3)c2)o1)c1ccc(F)cc1 [Example 22]
13,92.6%,O=C(NC(Cc1ccccc1)[C@H](O)C(=O)Nc1cccc(-c2nn[nH]n2)c1)c1cccc(C(=O)N2COCC2c2ccccc2)n1 (stereo partly shown) [Example 15]
14,50.8%,C[C@@H](NC(=O)c1cc(=O)cc(C(=O)NC(Cc2ccccc2)[C@H](O)C(=O)Nc2cccc(-c3nn[nH]n3)c2)[nH]1)c1ccccc1 (stereo partly shown) [Example 7]
15,80.8%,CC(C)(NC(=O)c1cc(=O)cc(C(=O)N[C@@H](Cc2ccccc2)[C@H](O)C(=O)Nc2cccc(-c3nn[nH]n3)c2)o1)c1ccccc1 [Example 21]
16,70.4%,COc1ccc([C@@H](C)NC(=O)c2cc(=O)cc(C(=O)N[C@@H](Cc3ccccc3)[C@H](O)C(=O)Nc3cccc(-c4nn[nH]n4)c3)o2)cc1 [Example 5]
